Test: Potentiometry: stability constants and pFe3+ of the iron complex
Type: physicochemical
Method: The complexation affinity of Quilamine with the metal ion in the organism reflects the chelating capacity or chelating power of Quilamine. This affinity can be assessed by measuring the value of pW corresponding to −log of the concentration in free metal ion W, i.e. non-complexated by the Quilamine for a ratio of respective concentrations of Quilamine (10 micromoles per liter) and metal ion (1 micromole per liter) equal to 10, at 25° C. and pH 7.4. The higher the value of pW, the greater the affinity of Quilamine with metal ion. The affinity of Quilamine with iron in its ferric form (Fe(III)) and its ferrous form (Fe(II)) is measured respectively by pFe^3+ and pFe^2+ at physiological pH (pH=7.4), at 25° C.
Potentiometry measurements were made in thermostated titration cells at 25±0.1° C., using a Metrohm 702 SM Titrino titrator connected to a Metrohm 6.0233.100. The ligand solution is prepared in a concentration of ˜1.5×10^−3 moles per liter, the solution of Fe^3+ is made from FeCl3 and titrated by complexation with a standard solution of EDTA (ethylenediaminetetracetic acid). The sample for the measurement contained approximately 0.03 millimoles per liter of ligand in a volume of 30 ml where the ionic strength is maintained at 0.1 mole per liter in using KNO3 as a support electrolyte. During the titrations, Fe^3+ is added to 0.45 or 0.9 equivalents of ligand. Each titration consists of 150-200 equilibrium points with pH varying from 2.0 to 11.5, and is repeated at least twice. The thermodynamic constants are computed with the software […] and the speciation diagram of the species is done by the Hyss program.

Constant of stability (log K), species FeL (25.0° C., I = 0.1 M in KNO3): 25.92
Constant of stability (log K), species FeL2 (25.0° C., I = 0.1 M in KNO3): 7.8
Constant of stability (log K), species FeL2H (25.0° C., I = 0.1 M in KNO3): 10.2
Constant of stability (log K), species FeL2H2 (25.0° C., I = 0.1 M in KNO3): 8.0
Constant of stability (log K), species FeL2H3 (25.0° C., I = 0.1 M in KNO3): 8.2
Constant of stability (log K), species FeL(OH) (25.0° C., I = 0.1 M in KNO3): 7.37
Constant of stability (log K), species FeLH (25.0° C., I = 0.1 M in KNO3): 6.65
Constant of stability (log K), species FeLH2 (25.0° C., I = 0.1 M in KNO3): 2.88
pFe3+ (pH 7.4): 27
Structure (SMILES): NCCCCNCCCCNCc1ccc2cccc(O)c2n1 [HQ1-44, 2-[4-(4-aminobutyl)aminobutyl]aminomethylquinolin-8-ol]
